Test results from publication PMC11969009 (Nature Communications, 2025).
Values joined by “and” are separate entries in the source; they are usually repeats but may differ in a detail not shown here. Equal entries are not always repeated. Where two headings read alike, the source gives them in different places.

Key:
[1] = target: SARS-CoV-2 PLpro (Severe acute respiratory syndrome coronavirus 2, UniProt P0DTD1); assay: biochemical; parameters: inhibition of SARS-CoV-2 PLpro, UbRh dose-response replicate value: unit: %
[2] = target: NL63 PL2pro (Human coronavirus NL63, UniProt P0C6X5); assay: biochemical; parameters: inhibition of NL63 PL2pro, UbRh dose-response replicate value: unit: %
[3] = target: OC43 PLpro (Human coronavirus OC43, UniProt P0C6X6); assay type: biochemical; parameters: unit not given here
[4] = system: SARS-CoV-2 clinical isolate VIC001; assay: microbe, parasite or virus in culture; assay type: cell-based
[5] = target: HKU1 PLpro (Human coronavirus HKU1, UniProt P0C6X2); assay: biochemical; assay type: biochemical; parameters: inhibition of HKU1 PLpro, UbRh dose-response replicate value: unit: %
[6] = target: USP21 (Homo sapiens, UniProt Q9UK80); assay type: biochemical
Chain of USP21 (Q9UK80 whole entry): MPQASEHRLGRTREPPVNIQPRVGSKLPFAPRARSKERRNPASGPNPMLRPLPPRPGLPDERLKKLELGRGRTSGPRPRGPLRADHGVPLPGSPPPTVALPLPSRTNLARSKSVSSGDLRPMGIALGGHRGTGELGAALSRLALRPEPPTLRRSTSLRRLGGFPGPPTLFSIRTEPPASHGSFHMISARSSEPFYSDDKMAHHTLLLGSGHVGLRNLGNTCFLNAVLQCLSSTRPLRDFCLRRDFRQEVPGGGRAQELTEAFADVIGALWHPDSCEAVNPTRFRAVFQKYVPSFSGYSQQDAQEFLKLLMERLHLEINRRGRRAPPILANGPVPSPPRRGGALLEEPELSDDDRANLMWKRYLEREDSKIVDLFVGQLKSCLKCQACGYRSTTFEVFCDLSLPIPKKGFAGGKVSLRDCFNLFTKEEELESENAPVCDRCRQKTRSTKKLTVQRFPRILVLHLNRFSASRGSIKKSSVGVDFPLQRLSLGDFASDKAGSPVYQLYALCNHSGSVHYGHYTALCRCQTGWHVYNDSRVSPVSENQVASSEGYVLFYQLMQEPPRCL

Chain of NL63 PL2pro (P0C6X5 1578-1876 limits assumed): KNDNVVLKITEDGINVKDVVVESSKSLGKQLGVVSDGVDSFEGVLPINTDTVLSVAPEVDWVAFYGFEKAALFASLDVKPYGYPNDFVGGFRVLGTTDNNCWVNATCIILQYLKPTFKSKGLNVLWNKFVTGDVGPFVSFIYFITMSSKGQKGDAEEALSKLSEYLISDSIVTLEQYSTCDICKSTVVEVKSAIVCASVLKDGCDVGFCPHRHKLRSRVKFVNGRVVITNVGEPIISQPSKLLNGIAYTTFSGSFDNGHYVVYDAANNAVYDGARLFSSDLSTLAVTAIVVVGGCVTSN
Chain of OC43 PLpro (P0C6X6 1561-1872 limits assumed): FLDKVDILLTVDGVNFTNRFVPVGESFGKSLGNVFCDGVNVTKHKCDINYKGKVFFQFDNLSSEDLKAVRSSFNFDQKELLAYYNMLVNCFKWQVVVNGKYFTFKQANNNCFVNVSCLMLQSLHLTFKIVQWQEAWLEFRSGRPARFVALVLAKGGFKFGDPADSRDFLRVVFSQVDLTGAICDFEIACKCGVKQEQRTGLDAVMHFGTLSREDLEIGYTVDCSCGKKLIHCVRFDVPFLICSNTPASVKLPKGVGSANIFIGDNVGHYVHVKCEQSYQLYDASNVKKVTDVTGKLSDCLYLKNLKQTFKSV
Chain of HKU1 PLpro (P0C6X2 1648-1958 limits assumed): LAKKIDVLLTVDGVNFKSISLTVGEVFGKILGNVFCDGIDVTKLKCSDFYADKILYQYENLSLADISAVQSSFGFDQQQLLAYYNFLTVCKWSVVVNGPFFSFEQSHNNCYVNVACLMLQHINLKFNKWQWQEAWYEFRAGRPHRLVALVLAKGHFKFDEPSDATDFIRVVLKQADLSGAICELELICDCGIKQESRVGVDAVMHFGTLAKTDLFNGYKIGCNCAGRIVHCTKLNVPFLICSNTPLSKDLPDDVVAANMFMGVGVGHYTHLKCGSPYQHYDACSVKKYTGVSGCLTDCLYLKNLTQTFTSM

CO/N=C(/c1ccc2cc(OC)ccc2c1)[C@@H]1CCCN([C@H]2CC[C@@H](O)CC2)C1 [WEHI-P4] was tested, and the inhibition at 1.63 µM ([1]; Conc 1.63 µM, read-out: inhibition of SARS-CoV-2 PLpro, UbRh dose-response replicate value) was 99.9%, the “inhibition of SARS-CoV-2 PLpro, UbRh dose-response replicate value” (“inhibition of SARS-CoV-2 PLpro” for short) ([1]; Conc 1.64 µM) was 100.528 and 98.3984 and 97.5602 and the inhibition at 1.64 µM ([1]; Conc 1.64 µM, read-out: inhibition of SARS-CoV-2 PLpro, UbRh dose-response replicate value) was 101%. For the same molecule, the “inhibition of SARS-CoV-2 PLpro” value ([1]; Conc 3.63 µM) was 107.19 and 107.537 and 118.551, the inhibition at 3.63 µM ([1]; Conc 3.63 µM, read-out: inhibition of SARS-CoV-2 PLpro, UbRh dose-response replicate value) was 108% and the “inhibition of SARS-CoV-2 PLpro” value ([1]; Conc 4.9 µM) was 99.5845 and 98.2639 and 99.0831 and 98.0118 and 99.4255 and 97.4945 and 99.077. The inhibition at 4.9 µM ([1]; Conc 4.9 µM, read-out: inhibition of SARS-CoV-2 PLpro, UbRh dose-response replicate value) was 99.1%, the “inhibition of SARS-CoV-2 PLpro” value ([1]; Conc 98 µM) was 106.984 and 107.551 and 120.253 and the inhibition at 98 µM ([1]; Conc 98 µM, read-out: inhibition of SARS-CoV-2 PLpro, UbRh dose-response replicate value) was 107%. The IC50 ([1]; IC50 (UbRh) SARS-CoV-2 PLpro, Supplementary Fig. 2b) was 32 nM, the inhibition at […] ([1]; read-out: inhibition of SARS-CoV-2 PLpro, UbRh dose-response replicate value) was 93.6% and 81.4% and 107% (2×) and 108% and 105% and 99.2% and 92.6% and the IC50 [2] was 52000 nM. The “inhibition of NL63 PL2pro, UbRh dose-response replicate value” (“inhibition of NL63 PL2pro” below) [2] was 29.2044 and 27.2154 and 12.8016 and 14.0355 and 13.7224 and -0.9824 and 3.459 and 0.1256 and -0.3351 and 1.574 and 1.516 and -0.1016 and -0.4149 and 0.8753 and 0.8707 and 2.0171 and 6.071, the “inhibition of NL63 PL2pro” value ([2]; Conc 0.00498 µM) was 2.403 and 7.259 and 5.7694 and -2.335 and the “inhibition of NL63 PL2pro” value ([2]; Conc 0.0149 µM) was 1.231 and 5.289 and 2.0908 and -3.1147. The “inhibition of NL63 PL2pro” value ([2]; Conc 0.0448 µM) was 0.2539 and -0.387 and 1.95 and -0.1081, the “inhibition of NL63 PL2pro” value ([2]; Conc 3.63 µM) was 5.122 and 3.572 and 1.225 and -0.02217 and the “inhibition of NL63 PL2pro” value ([2]; Conc 98 µM) was 57.8171 and 54.6906 and 55.1157. The inhibition at 98 µM ([2]; Conc 98 µM, read-out: inhibition of NL63 PL2pro, UbRh dose-response replicate value) was 58.4%, the inhibition at […] ([2]; read-out: inhibition of NL63 PL2pro, UbRh dose-response replicate value) was 34.7% and 15.8% and the “inhibition of OC43 PLpro, UbRh dose-response replicate value” (“inhibition of OC43 PLpro” below) [3] was -2.257 and 2.5807 and 4.868 and -0.1188 and -1.486 and 1.4475 and 10.2923 and 5.639 and 2.747 and 1.253 and 10.74 and 6.439 and 0.2359 and 1.058 and 1.648 and 0.7875 and 3.338 and 4.936 and 12.7203 and 5.2479. For the same molecule, the “inhibition of OC43 PLpro” value ([3]; Conc 0.00498 µM) was -1.019 and 4.2451 and 4.799 and 3.755, the “inhibition of OC43 PLpro” value ([3]; Conc 0.0149 µM) was 3.285 and -5.104 and 7.176 and 0.6631 and the “inhibition of OC43 PLpro” value ([3]; Conc 0.0448 µM) was 1.599 and 3.82 and 6.435 and 3.684. The “inhibition of OC43 PLpro” value ([3]; Conc 3.63 µM) was -4.48 and 0.0664 and 5.368 and 1.321, the “inhibition of OC43 PLpro” value ([3]; Conc 98 µM) was 8.342 and 5.591 and 3.318 and 3.826 and the EC50 ([4]; Severe acute respiratory syndrome coronavirus 2, Vero, read-out: Antiviral EC50 (plaque assay)) was 400 nM. For the same molecule, the EC50 ([4]; Severe acute respiratory syndrome coronavirus 2, Vero, read-out: Antiviral EC50 (plaque assay) with Pgp inhibitor) was 306 nM, the EC50 ([4]; read-out: Antiviral EC50 (plaque assay)) was 410 nM and the “inhibition of HKU1 PLpro, UbRh dose-response replicate value” (shortened to “inhibition of HKU1 PLpro”) [5] was 1.705 and -0.1054 and 2.2991 and 4.234 and 8.121 and -2.271 and 3.812 and 1.385 and 5.008 and 9.904 and 4.3232 and 13.1694 and 12.2718 and 4.484 and 1.663 and 12.2999 and 8.634 and 4.883 and 1.702 and 14.2701. The “inhibition of HKU1 PLpro” value ([5]; Conc 0.00498 µM) was 10.7444 and 9.596 and 9.063, the inhibition at 0.00498 µM ([5]; Conc 0.00498 µM, read-out: inhibition of HKU1 PLpro, UbRh dose-response replicate value) was 6.7% and the “inhibition of HKU1 PLpro” value ([5]; Conc 0.0149 µM) was 6.961 and -0.5687 and 9.316 and 1.404. The “inhibition of HKU1 PLpro” value ([5]; Conc 0.0448 µM) was 2.999 and 18.114 and 6.887 and 6.926, the “inhibition of HKU1 PLpro” value ([5]; Conc 3.63 µM) was -1.799 and 2.922 and 4.67 and 5.455 and the “inhibition of HKU1 PLpro” value ([5]; Conc 98 µM) was -6.574 and 1.985 and 4.593 and -1.2047. The “inhibition of USP21, UbRh dose-response replicate value” (“inhibition of USP21” for short) [6] was -14.237 and -11.9773 and -10.1399 and -17.0381 and -16.4868 and -21.6825 and -18.261 and -18.781 and -13.7423 and -13.1772 and -6.117 and -6.284 and -18.5884 and -21.057 and -7.715 and -13.3224, the “inhibition of USP21” value ([6]; Conc 0.000249 µM) was -14.4284 and -17.3988 and 5.209 and -15.2664 and the “inhibition of USP21” value ([6]; Conc 0.000745 µM) was -25.0632 and -19.3083 and -9.965 and -17.0572. For the same molecule, the “inhibition of USP21” value ([6]; Conc 0.00675 µM) was -16.8226 and -16.7878 and -5.942 and -9.8797, the “inhibition of USP21” value ([6]; Conc 0.545 µM) was -6.303 and -14.0881 and -12.3002 and -21.4576 and the “inhibition of USP21” value ([6]; Conc 1.64 µM) was -4.137 and -7.939 and -11.2839 and -6.868. The “inhibition of USP21” value ([6]; Conc 4.9 µM) was -8.882 and -9.138.
